Measured values: US20140186329A1, “POLYPHENOL ANALOGS TO TREAT ISCHEMIA” (priority 2011, published 2014)
Read-outs that look alike come from different tables or passages of the source.

Experiments:
PC12 cells = assay: PC12 cell differentiation (neurite outgrowth); type: cell-based; details: N2 medium, derivative 1-10 μM, 24 hr, visual inspection
Experimental: PC 12 cells in N2 medium were treated with the derivatives (1-10 μM) or Fisetin (10 μM) as a positive control for 24 hr at which time the cells were scored for the presence of neurites. PC12 cells produce neurites much more rapidly when treated in N2 medium than when treated in regular growth medium. For each treatment, 100 cells in each of three separate fields were counted. Cells were scored positive if one or more neurites>1 cell body diameter in length were observed.
(§1) Three secondary screens allowed assessment of three key activities of Fisetin that are highly relevant to stroke, as well as other neurological disorders: maintenance of glutathione (GSH), the major endogenous cellular antioxidant, inhibition of LPS-induced microglial activation, an indicator of anti-inflammatory activity and PC 12 cell differentiation, a measure of neurotrophic activity. All of these activities are relevant to the nerve cell loss seen in stroke (Gelderblom, et al., Stroke. 2009, 40 (5), 1849-1857; Pandya, et al., Cent. Nerv. Syst. Agents. Med. Chem. (2011) April 27; Lewerenz, et al., J. Neurochem. (2010) 113 (2), 502-504). […] To assess GSH maintenance, total intracellular GSH levels after a 24 hr treatment with the compound both in the absence and presence of glutamate, an inducer of GSH loss and oxidative stress (Tan, et al., Curr. Top. Med. Chem. (2001) 1, 497-506; Maher, et al., Free Radical Research. (2006) 40 (10), 1105-1111) was measured. Inhibition of LPS-induced microglial activation was determined by treating N9 mouse microglial cells with LPS alone and in the presence of the compounds and assaying NO release into the medium 24 hr later (Zheng, et al., Int. Immunopharmacol. (2008) 8, (3), 484-494). PC12 cell differentiation was determined by treating PC12 cells with the compounds and looking at neurite outgrowth after 24 hr. In all cases, Fisetin was used as a positive control (Sagara, et al., J. Neurochem. (2004) 90, 1144-1155).
(§2) Cell viability was determined after 24 hr by the MTT assay. The ability to maintain GSH (GSH) was determined by treating HT22 cells with different doses of each derivative (1-10 μM) in the presence of 5 mM glutamate. After 24 hr cell extracts were prepared and analyzed for total GSH. Fisetin (10 μM) was used as a positive control. The ability to induce PC12 cell differentiation (PC 12 diff' n) was determined by treating PC12 cells in N2 medium with different doses of each derivative (1-10 μM) for 24 hr. Differentiation was assessed by visual inspection with Fisetin (10 μM) as a positive control. Anti-inflammatory activity (microglia) was assessed in N9 microglial cells treated with bacterial lipopolysaccharide alone or in the presence different doses of each derivative (1-10 μM) for 24 hr. Fisetin was used as a positive control. TEAC values, a measure of direct antioxidant activity, were determined using the ABTS decolorization assay.

HT22 cells [1] = assay: Maintenance of total GSH in the presence of glutamate; type: cell-based, mouse; details: derivative 1-10 μM, 5 mM glutamate, 24 hr
Experimental: Total intracellular glutathione was determined by a chemical assay as described (Maher, P. et al., Free Radical Research. (2006) 40 (10), 1105-1111).
as §1, §2

HT22 cells [2] = assay: In vitro ischemia assay (HT22 cell IAA assay, MTT); type: cell-based, mouse; details: for Emax: HT-22, HT22 Cell IAA assay, read-out: Max Protection; for fold improvement of neuroprotective activity/potency relative to Fisetin: in vitro ischemia, HT22/IAA
Experimental: Cell viability was determined by a modified version of 3-(4,5-dimethylthiazol-2-yl)-2,5-diphenyl tetrazolium bromide (MTT) assay based on the standard procedure (Maher, et al., Brain Research. (2007), supra). Cells were seeded onto 96-well microtiter plates at a density of 5×10^3 cells per well. For the in vitro ischemia assay, the next day, the medium was replaced with DMEM supplemented with 7.5% DFCS and the cells were treated with 20 μM iodoacetic acid (IAA) alone or in the presence of the different derivatives. After 2 hr the medium in each well was aspirated and replaced with fresh medium without IAA but containing the derivatives. 20 hr later, the medium in each well was aspirated and replaced with fresh medium containing 2.5 μg/ml MTT. After 4 hr of incubation at 37° C., the cells were solubilized with 100 μl of a solution containing 50% dimethylformamide and 20% SDS (pH 4.7). The absorbance at 570 nm was measured on the following day with a microplate reader (Molecular Devices). Results were confirmed by visual inspection of the wells. Controls included compound alone to test for toxicity and compound with no cells to test for interference with the assay chemistry.
For a primary screen, an in vitro ischemia model in combination with the HT22 nerve cell line (Maher, et al., Brain Research. (2007) 1173, 117-125) was chosen. […] To induce ischemia in the HT22 cells we used iodoacetic acid (IAA), a well-known, irreversible inhibitor of the glycolytic enzyme glyceraldehyde 3-phosphate dehydrogenase (G3PDH) (Winkler, et al., Exp. Eye Res. (2003) 76, 715-723). IAA has been used in a number of other studies to induce ischemia in nerve cells (Reshef, et al., Neurosci. Lett. (1997) 238, 37-40; Sperling, et al., Neursci. Lett. (2003) 351, 137-140; Rego, et al., Neurochem. Res. (1999) 24, 351-358; Sigalov, et al., J. Mol. Neurosci. (2000) 15, 147-154; and Reiner, et al., Neurosci. Lett. (1990) 119, 175-178), including several recent screens for neuroprotective molecules (Biraboneye, et al., J. Med. Chem. (2009) 52 (14), 4358-4369; Biraboneye, et al., Chem. Med. Chem. (2010) 5 (1), 79-85). The changes following IAA treatment of neural cells are very similar to those seen in animal models of ischemic stroke (Lipton, et al., Physiol. Rev. (1999) 79, 1431-1568) and include alterations in membrane potential (Reiner, et al., Neurosci. Lett. (1990) 119, 175-178), breakdown of phospholipids (Taylor, et al., J. Pharmacol. Exp. Ther. (1996) 276, 1224-1231), loss of ATP (Winkler, et al., Exp. Eye Res. (2003) 76, 715-723; Sperling, et al., Neursci. Lett. (2003) 351, 137-140) and an increase in reactive oxygen species (ROS) (Taylor, et al., J. Pharmacol. Exp. Ther. (1996), supra; and Sperling, et al., Neursci. Lett. (2003) 351, 137-140).
as §2
For rapid screening of chemical libraries, a mouse HT22 hippocampal cell death assay induced by addition of the compound iodoacetic acid (IAA) was used. IAA is a well-known, irreversible inhibitor of the glycolytic enzyme glyceraldehyde 3-phosphate dehydrogenase (G3PDH). […]

[3] = TEAC, ABTS decolorization assay; details: relative to Trolox
Experimental: TEAC values for the flavonoids were determined as described (Maher, P. et al., Free Radical Research. (2006), supra). Briefly, 250 μl of 2,2′-azinobis(3-ethylbenzothiazoline 6-sulfonate) (ABTS) treated overnight with potassium persulfate and diluted to an OD of ˜0.7 at 734 nm was added to 2.5 μl of a derivative solution in ethanol. The change in absorbance due to the reduction of the ABTS radical cation was measured at 734 nm for 4 min. To calculate the TEAC, the gradient of the plot of the percentage inhibition of absorbance vs. concentration for the derivative in question was divided by the gradient of the plot for Trolox.
as §2

[4] = HT22 cells, 20 μM IAA for 2 hr, viability after 24 hr by MTT
[5] = Mus musculus, HT-22, HT22 cells, 20 μM IAA for 2 hr, viability after 24 hr by MTT, read-out: EC50 in vitro ischemia
[6] = Mus musculus, HT-22, HT22 cells, 20 μM IAA, read-out: HT22 Cell IAA assay EC50
[7] = HT22 cells, 20 μM IAA, read-out: HT22 Cell IAA assay EC50

| Compound | PC12 diff'n (ability to induce PC12 cell differentiation) (PC12 cells) | GSH (ability to maintain GSH) (HT22 cells [1]) | EC50 in vitro ischemia (μM) (HT22 cells [2]; [4]) | TEAC [3] | EC50 (HT22 cells [2]; [5]) [nM] | EC50 (HT22 cells [2]; [6]) [nM] | Emax (HT22 cells [2]; Mus musculus) [%] | fold improvement of neuroprotective activity/potency relative to Fisetin (HT22 cells [2]) [fold] | EC50 (HT22 cells [2]; [7]) [nM] |
| --- | --- | --- | --- | --- | --- | --- | --- | --- | --- |
| COc1ccc(-c2cc(OC)c3ccccc3n2)cc1O [CMS-001, 4-methoxy-2-(3-hydroxy, 4-methoxyphenyl) quinoline] | no | no | no | 0.24 |  |  |  |  |  |
| O=c1cc(-c2ccc(O)c(O)c2)oc2c1ccc1ccccc12 [CMS-02P, reference compound] | yes | no |  | 0.18 | 80 | ≤ 100 | 86 | ~40 |  |
| CCOc1ccc(-c2cc(OC)c3ccccc3n2)cc1OCC [CMS-004, 4-methoxy-2-(3,4-diethoxyphenyl) quinoline] | no | no | no | 0.12 |  |  |  |  |  |
| CCOc1ccc(/C=C/C(=O)c2cc(C)c(C)cc2O)cc1OCC [CMS-013, (E)-3-(3,4-diethoxyphenyl)-1-(2-hydroxy-4,5-dimethylphenyl)prop-2-en-1-one] | no | no | no | 0.09 |  |  |  |  |  |
| COc1cc(-c2cc(OC)c3ccccc3n2)ccc1O [CMS-017, 4-methoxy-2-(4-hydroxy, 3-methoxyphenyl) quinoline] | no | no |  | 0.15 | 500 |  |  |  |  |
| CCOc1ccc(-c2cc(=O)c3cc(C)c(C)cc3o2)cc1OCC [CMS-018, 2-(3,4-diethoxyphenyl)-6,7-dimethyl-4H-chromen-4-one] | no | no | no | 0.15 |  |  |  |  |  |
| COc1cc(-c2ccccc2)nc2ccccc12 [CMS-021, 4-methoxy-2-phenylquinoline] | no | no |  | 0.12 | 750 |  |  |  |  |
| COc1cc(-c2ccc(O)cc2)nc2ccccc12 [CMS-022, 4-methoxy-2-(4-hydroxyphenyl)quinoline] | no | no | no | 0.81 |  |  |  |  |  |
| COc1cc(-c2oc3cc(C)c(C)cc3c(=O)c2O)ccc1CCl [CMS-078, 2-(4-(chloromethyl)-3-methoxyphenyl)-3-hydroxy-6,7-dimethyl-4H-chromen-4-one] |  |  |  |  |  | 134 |  |  |  |
| CC(C)c1ccc(O)c(C(=O)/C=C/c2ccc(O)c(O)c2)c1 [CMS-129, (E)-3-(3,4-dihydroxyphenyl)-1-(2-hydroxy-5-isopropylphenyl)prop-2-en-1-one] |  |  |  |  |  | ≤ 100 | 81 |  | 80 |
| COc1cc(/C=C/C(=O)c2ccc3ccccc3c2O)ccc1N1CCCC1 [CMS-137, (E)-1-(1-hydroxynaphthalen-2-yl)-3-(3-methoxy-4-(pyrrolidin-1-yl)phenyl)prop-2-en-1-one] |  |  |  |  |  | 85 | 75 |  |  |
| O=C(/C=C/c1ccc(N2CCCC2)c(O)c1)c1ccc2ccccc2c1O [CMS-138, (E)-3-(3-hydroxy-4-(pyrrolidin-1-yl)phenyl)-1-(1-hydroxynaphthalen-2-yl)prop-2-en-1-one] |  |  |  |  |  | 70 | 72 |  |  |
| COc1cc(-c2oc3c(ccc4ccccc43)c(=O)c2O)ccc1N1CCCC1 [CMS-139, 3-hydroxy-2-(3-methoxy-4-(pyrrolidin-1-yl)phenyl)-4H-benzo[h]chromen-4-one] |  |  |  |  |  | ≤ 100 | 92 |  | 50 |
| O=c1cc(-c2ccc(O)c(O)c2)oc2ccccc12 [PM-001] |  |  |  |  |  | 500 |  | 6 |  |
| O=c1cc(-c2ccc(O)c(O)c2)oc2ccc3ccccc3c12 [PM-003] |  |  |  |  |  | 80 |  | ~40 |  |
| O=C1/C(=C/c2ccc(O)c(O)c2)Oc2cc(O)ccc21 [PM-014] |  |  |  |  |  | 49 |  |  |  |
